In one series the test system is Bcl-2 and Bax. Description: Bcl-2:Bax ratio in H460 cells (western blot). Conditions: 1.2 μM. It counts as cell-based, human. How it is done:
FIGS. 11A and 11B are schematic illustrations showing XIAP oligonucleotide-mediated effects on caspase activation. The effect of XIAP oligonucleotides F3, G4, or C5, or their respective RP and SC ODN controls at 1.2 μM on the expression of pro-caspase-3, PARP (both full length (116 kDa) and processed (85 kDa)) (FIG. 10A) and Bcl-2 and Bax protein levels (FIG. 10B) in transfected H460 cells compared to control is shown. Proteins expression was analyzed by western blotting. Bcl-2 and Bax protein levels were normalized to cellular actin levels and quantified by densitometry. […]
The cells or tumor tissue samples were lysed with ice-cold lysis buffer (50 mM Tris, 150 mM NaCl, 2.5 mM EDTA, 0.1% SDS, 0.5% sodium deoxycholate, 1% NP-40, 0.02% sodium azide) containing protease inhibitors (Complete-Mini protease inhibitor tablets; Boehringer Mannheim GmBH, Mannheim, Germany). […] Protein content in the lysed extracts was determined using a detergent-compatible Bio-Rad assay (Bio-Rad Labs, Hercules, Calif.). […] Proteins were detected by enhanced chemiluminescence (ECL; Amersham Pharmacia Biotech, Buckinghamshire, England) and visualized after exposure to Kodak autoradiography film. Scanning densitometry (Molecular Dynamics, Sunnyvale, Calif.) was performed to quantify band intensities by volume/area integration. […]
(Immunoblotting shows a protein as a band on a membrane.)

For a further series, the system named is XIAP mRNA. Description: XIAP mRNA knock-down in H460 cells (real-time RT-PCR / TaqMan). It counts as cell-based, human. Conditions: 2 × 2 MBO; NCI-H460 cells, 9 hours post-transfection; relative level (mock control 1.01). Background: Quantitative PCR measures a nucleic acid by following its amplification.
The next series has as its system H460 cells. Description: Nuclear morphology (DAPI staining). It counts as cell-based, human. Conditions: 1.2 μM. How it is done:
Cells were treated with liposome-oligonucleotde complexes for 4.5 h, and incubated for another 48 h at 37° C. in the medium without transfection reagent or oligonucleotides. Cells were harvested and stained with 0.10 μg/ml DAP1 (4′, 6-diamidino-2-2-phenylindole) for 30 min at room temperature. Cells were placed on a glass slide, cytospun, and viewed with a Leica microscope and 40× objective lens under UV fluorescent illumination. Digital images were captured using Imagedatabase V. 4.01 Software (Leica, Germany).

Series [1] has as its system subcutaneous H460 human non-small-cell lung tumor xenografts. Put plainly: Systemic (i.p.) oligonucleotides with or without vinorelbine in H460 xenografts. It counts as in vivo, SCID-RAG2 mice. Conditions: for mean tumor size: day 24, control 0.75. The procedure:
Initial systemic PS-oligonucleotide studies were designed without any chemotherapeutic agents. SCID-RAG2 mice were inoculated with H460 human lung carcinoma cells (s.c. shoulder injection of 10^6 cells) and treatments with G4 and F3 AS PS-oligonucleotides, as well as a scrambled control, were initiated three days after tumor inoculation. Nucleobase oligomer injections were administered i.p. at 12.5 mg/kg three times a week for three weeks. At the end of the treatment period, mean tumor sizes in the groups treated with either G4 or F3 AS oligonucleotides were ˜50% smaller than in the group treated with a scrambled control oligonucleotides (FIG. 15). The same treatment protocol was tested on female SCID-RAG2 mice inoculated orthotopically with MDA-MB-435/LCC6 human breast carcinoma cells. Two weeks after the last treatment (day 35) tumor volumes of mice treated with F3, C5 or G4 AS oligonucleotides were 70%, 60%, and 45%, respectively, smaller than vehicle controls (FIG. 16).
We conducted additional examination of the antitumor effects of G4 AS oligonucleotides in SCID-RAG2 mice bearing xenografts of H460 human non-small-cell lung tumors implanted subcutaneously. Saline-treated control tumors grew reproducibly to a size of 0.75 cm^3 within approximately 24 days (FIG. 17). Oligonucleotide treatments were initiated three days after tumor cell inoculation. G4 AS oligonucleotides (5 to 15 mg/kg) were administered using a treatment schedule of i.p. injections given once a day on days 3-7, 10-14, and 17-21. The treatment with 5 or 15 mg/kg G4 AS oligonucleotides greatly delayed tumor growth: on day 24 mean tumor sizes were 0.75, 0.45 and 0.29 cm^3 in control, 5 and 15 mg/kg treated groups, respectively (FIG. 18A). There was a dose-dependent inhibition of tumor growth. […] A dose of 15 mg/kg was selected for the future combination treatment regimens with anticancer drugs.
The human non-small cell lung cancer cell line (large cell type) NCI-H460 (H460) was obtained from ATCC and maintained in RPMI 1640 supplemented with 10% FCS at 37° C. in a humidified atmosphere containing 5% CO2. Cells were used in exponential growth phase, up to a maximum of 25 in vitro passages. Male SCID-RAG2 mice (7-9 weeks old, 23-26 g) were obtained from British Columbia Cancer Agency Joint Animal Facility breeding colony and kept in aseptic environments. A tumor model of NCI-H460 cells in SCID-RAG2 mice was established by subcutaneous implantation of 1×10^6 NCI-H460 cells on the back of mice.
Efficacy experiments were conducted in male RAG2 immunodeficient mice bearing NCI-H460 tumours or female RAG2 mice bearing LCC6 tumors. Treatments were commenced on day 3 after tumor inoculation. Saline (controls), G4 AS oligonucleotides (5 or 15 mg/kg), or G4 SC oligonucleotides (5 or 15 mg/kg) were administered i.p. daily for five doses a week over a three week regimen. Vinorelbine (VNB, 5 or 10 mg/kg) was administered i.v. via the tail vein, either alone or in combination with oligonucleotides, at day 3, 7, 11 and 17 after tumor inoculation. When oligonucleotides were administered in combination with VNB, the drug treatment was performed four hours after ODN treatment.
Mice were observed daily. Body weight measurements and signs of stress (e.g., lethargy, ruffled coat, ataxia) were used to detect possible toxicities. Animals with ulcerated tumor, or tumor volumes of 1 cm^3 or greater were killed. Digital caliper measurements of tumors were converted into mean tumor size (cm^3) using the formula: ½[length (cm)]×[width (cm)]^2. An average tumor size per mouse was used to calculate the group mean tumor size±SE (n=6 mice) from at least two independent experiments per group.

“Also recorded” adds a separate entry of the source.

With “GCTGAGTCTCCATATTGCC [G4 AS] (chemistry not given here)”, the “ratio of Bcl-2:Bax” value in the series with Bcl-2 and Bax is given as “unchanged”. Also, the “XIAP RNA” value in the series on XIAP mRNA is 0.48. Besides, the “nuclear morphological changes characteristic of apoptosis” value with H460 cells was “underwent morphological changes characteristic of apoptosis; also recorded: significant nuclear DNA condensation and fragmentation”. Also, the “tumor size as % of control mean tumor size” value in series [1] (15 mg/kg i.p.) is 39%. Also, the “mean tumor size smaller than scrambled control group” value in series [1] (PS-oligonucleotides 12.5 mg/kg i.p. three times a week for three weeks, end of treatment) was roughly 50%. For the same sequence, the mean tumor size is 0.45 cm^3 in series [1] (5 mg/kg i.p.) and 0.29 cm^3 in series [1] (15 mg/kg i.p.). Further, the “antitumor efficacy on H460 xenografts (in words)” value in series [1] (systemic, oligonucleotide 15 mg/kg i.p., VNB 5 or 10 mg/kg i.v.) is recorded as “significant sequence-specific growth inhibitory effects”.
